Drawing on ChEMBL document CHEMBL6109174, “The Prosperity and Adversity of M4 Muscarinic Acetylcholine Receptor Activators in the Treatment of Neuropsychiatric Disorders” (J Med Chem, 2025), this text covers EC50 for nine compounds.

What all share (assay type): functional
Test [1] has as its target T1, Muscarinic acetylcholine receptor M4 (Homo sapiens, UniProt P08173).
T1 sequence (P08173 whole entry): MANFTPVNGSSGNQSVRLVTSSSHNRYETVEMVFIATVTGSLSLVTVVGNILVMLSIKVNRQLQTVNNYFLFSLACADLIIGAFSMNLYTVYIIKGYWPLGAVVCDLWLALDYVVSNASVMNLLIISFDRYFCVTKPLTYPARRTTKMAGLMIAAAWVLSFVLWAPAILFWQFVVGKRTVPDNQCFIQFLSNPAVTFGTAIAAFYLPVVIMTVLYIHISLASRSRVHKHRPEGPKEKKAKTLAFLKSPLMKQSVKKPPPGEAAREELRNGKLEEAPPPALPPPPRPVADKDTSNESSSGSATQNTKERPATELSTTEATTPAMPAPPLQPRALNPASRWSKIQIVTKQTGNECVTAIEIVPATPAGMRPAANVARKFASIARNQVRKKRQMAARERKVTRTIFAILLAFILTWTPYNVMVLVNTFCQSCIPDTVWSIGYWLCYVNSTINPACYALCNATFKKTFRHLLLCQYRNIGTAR
Put plainly: Agonist activity at human recombinant M4 muscarinic acetylcholine receptor assessed as calcium mobilization by FLIPR analysis.

The target in test [2] is T1, Muscarinic acetylcholine receptor M4. The test can be described thus: Agonist activity at human M4 receptor.
The target in test [3] is T2, Muscarinic acetylcholine receptor M2 (Homo sapiens, UniProt P08172).
T2 sequence (P08172 whole entry): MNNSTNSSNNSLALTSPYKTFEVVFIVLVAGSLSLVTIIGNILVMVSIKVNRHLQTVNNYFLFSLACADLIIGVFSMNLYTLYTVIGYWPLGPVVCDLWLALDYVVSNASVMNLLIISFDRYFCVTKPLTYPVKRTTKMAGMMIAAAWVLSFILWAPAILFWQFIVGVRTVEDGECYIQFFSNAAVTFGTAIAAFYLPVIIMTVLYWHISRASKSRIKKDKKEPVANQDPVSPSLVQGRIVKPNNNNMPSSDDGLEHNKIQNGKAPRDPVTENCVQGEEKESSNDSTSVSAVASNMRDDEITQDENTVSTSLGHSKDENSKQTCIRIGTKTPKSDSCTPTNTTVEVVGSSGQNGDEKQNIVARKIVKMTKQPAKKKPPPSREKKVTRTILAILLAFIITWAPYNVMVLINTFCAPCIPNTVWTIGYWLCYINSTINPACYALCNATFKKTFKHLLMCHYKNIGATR
Put plainly: Agonist activity at human M2 receptor.

The EC50 is the concentration at which the effect is half-maximal. Consider `Cc1cc(C)c2c(N)c(C(=O)NCc3ccccc3)sc2n1`, for which the EC50 in test [1] is 0.0013 µM.

For `Cc1cc(C)c2c(N)c(C(=O)NCc3ccco3)sc2n1`, the EC50 in test [1] is 0.395 µM.

As for `Cc1cc(C)c2c(N)c(C(=O)NCc3ccc(Cl)cc3)sc2n1`, the EC50 in test [1] amounted to 0.4 µM. On the same count and under the same terms, under `Cc1nc2sc(C(=O)NCc3ccncc3)c(N)c2c(C)c1Cl` stands 0.077 µM. `COc1nc2sc(C(=O)NC3CC3)c(N)c2c(C)c1Cl`: the EC50 in test [2] amounted to 0.039 µM. For `CCNC(=O)c1sc2nc(OC)c(Cl)c(C)c2c1N`, the EC50 in test [2] amounted to 0.2 µM.

In the case of `Cc1cc(C)c2c(N)c(C(=O)NCc3ccc4c(c3)OCO4)sc2n1`, the EC50 in test [1] was 0.403 µM. Still for that read-out and setting: to `Cc1nnc2sc(C(=O)NCc3ccc(-c4ccnc(F)c4)cc3)c(N)c2c1C` belongs 0.091 µM.

The compound `COC(=O)N1CCC(N2CCC(n3c(=O)n(C)c4ccccc43)CC2)CC1` registered an EC50 in test [3] of 0.135 µM.
